Data as given in US20210052741A1, “GENE THERAPY METHODS AND COMPOSITIONS USING AUXOTROPHIC REGULATABLE CELLS” (AUXOLYTIC LTD, priority 2018, published 2021).
Values joined by “and” are separate entries in the source; they are usually repeats but may differ in a detail not shown here. Equal values may be shown once.

Tests used:
Format in all cases: cell-based, human
[1] = system: UMPS^KO/KO/GFP^+ K562 cells mixed with UMPS^WT/WT K562 cells; assay: 5-FOA resistance in mixed K562 culture; conditions: for Percentages of GFP+ cells, Day 1 / Percentages of GFP+ cells, Day 2 / Percentages of GFP+ cells, Day 3 / Percentages of GFP+ cells, Day 4 / Percentages of GFP+ cells, Day 6 / Percentages of GFP+ cells, Day 8: with Uridine
Procedure: To determine the resistance of UMP S knockout cells to 5-FOA the purified uMPS^KO/KO/GFP^+ K562 cells were mixed at an equal ratio with UMPS^wT/WT/GFP-negative K562 cells. The cells were cultured in the presence of Uridine and different concentrations of 5-FOA (FIG. 6F).

[2] = system: UMPS edited T cells; assay: TIDE analysis of UMPS InDels in mixed UMPS edited population
Procedure: Sanger sequencing of the UMPS locus was performed using UMPS-O-1 and UMPS-O-2, with the region amplified using PHUSION™ Hot Start Flex 2x Master Mix (New England Biolabs, Inc.). Sanger sequencing traces were analyzed by TIDE analysis (see, Brinkman et al, 2014, Nucleic Acids Res. 42(22):e168), which is hereby incorporated by reference in its entirety) to identify insertions and deletions (InDels) after editing. InDel quantification was performed on the sequences using the TIDE online tool (www.deskgen.com/landing/tide.html) (See, M. Sadelain, N. Engl. J. Med. 365, 1735-7 (2011), which is hereby incorporated by reference in its entirety.
T Cells were electroporated and edited as in Example 2 and allowed to recover for a 4-day period in medium with serum, uridine, and UMP. On day 4, cells were shifted to UMP, uridine, or uracil source media. […]
To confirm the results on the genomic level, genomic DNA was harvested at the end of the experiment and InDels were quantified (FIG. 5D-FIG. 5E). FIG. 5D compares the frequency of InDels in different culture conditions for cells not exposed to 5-FOA.

[3] = system: CCR5 knockout T cells; assay: Growth time course with/without UMP or uridine; conditions: metabolite 250 μg/ml
Procedure: (§1) Genomic DNA was harvested using QUICKEXTRACT™ DNA Extraction Kit (Epicentre). Cells were counted on an automated cell counter using Trypan blue staining or on a CytoFLEX flow cytometer (Beckman Coulter) with automatic plate reader using COUNTBRIGHT™ beads (ThermoFisher) as a reference for normalizing the values. Alternatively, cells were analyzed after staining with fluorochrome-labelled antibodies (Biolegend) on an ACCURI™ C6 flow cytometer (BD Biosciences), which also measures volumes, or a FACS ARIA™ II SORP cell sorter (BD Biosciences). Data was analyzed using Excel (Microsoft) and FlowJo software (Tree Star).
(§2) T Cells were electroporated and edited as in Example 2 and allowed to recover for a 4-day period in medium with serum, uridine, and UMP. On day 4, cells were shifted to UMP, uridine, or uracil source media.
(§3) To evaluate whether the UMPS knockout leads to differential cell proliferation if cultured without the addition of Uridine or Uridine monophosphate (UMP), the cell counts in culture were followed over time by automatic cell counting with Trypan blue staining. UMPS knockout led to lower cell counts from day 2 after electroporation, compared to cells that were mock electroporated or electroporated using Cas9 targeting a different genomic locus (i.e., CCR5) (FIG. 5B).

[4] = system: Mock T cells; assay: Growth time course with/without UMP or uridine; conditions: metabolite 250 μg/ml
Procedure: as §1, §2, §3

[5] = system: UMPS knockout T cells; assay: Growth time course with/without UMP or uridine
Procedure: as §1, §2, §3

[6] = cells not exposed to 5-FOA, end of experiment, metabolite 250 μg/ml
[7] = UMPS knockout, metabolite 250 μg/ml

O=C(O)c1[nH]c(=O)[nH]c(=O)c1F [5-FOA, 5-fluoroorotic acid]
Number of GFP + cells per μl, Day 1 ([1]; 10 ug/ml 5-FOA): 87013.04 cells per μl | Number of GFP + cells per μl, Day 2 ([1]; 10 ug/ml 5-FOA): 163245.74 cells per μl | Number of GFP + cells per μl, Day 4 ([1]; 10 ug/ml 5-FOA): 569281.05 cells per μl | Number of GFP + cells per μl, Day 6 ([1]; 10 ug/ml 5-FOA): 550780.31 cells per μl | Number of GFP + cells per μl, Day 8 ([1]; 10 ug/ml 5-FOA): 719624.13 cells per μl | Percentages of GFP+ cells, Day 1 ([1]; 10 ug/ml 5-FOA): 45.4% and 48.5% | Percentages of GFP+ cells, Day 2 ([1]; 10 ug/ml 5-FOA): 54.7% and 56.8% | Percentages of GFP+ cells, Day 3 ([1]; 10 ug/ml 5-FOA): 65.6% and 64.0% | Percentages of GFP+ cells, Day 4 ([1]; 10 ug/ml 5-FOA): 64.8% and 69.7% | Percentages of GFP+ cells, Day 6 ([1]; 10 ug/ml 5-FOA): 79.1% and 76.5% | Percentages of GFP+ cells, Day 8 ([1]; 10 ug/ml 5-FOA): 85.0% and 79.8% | Number of GFP + cells per μl, Day 1 ([1]; 100 ug/ml 5-FOA): 115272.35 cells per μl | Number of GFP + cells per μl, Day 2 ([1]; 100 ug/ml 5-FOA): 106377.73 cells per μl | Number of GFP + cells per μl, Day 4 ([1]; 100 ug/ml 5-FOA): 376993.53 cells per μl | Number of GFP + cells per μl, Day 6 ([1]; 100 ug/ml 5-FOA): 501940.62 cells per μl | Number of GFP + cells per μl, Day 8 ([1]; 100 ug/ml 5-FOA): 693093.53 cells per μl | Percentages of GFP+ cells, Day 1 ([1]; 100 ug/ml 5-FOA): 52.6% and 48.9% | Percentages of GFP+ cells, Day 2 ([1]; 100 ug/ml 5-FOA): 67.1% and 64.2% | Percentages of GFP+ cells, Day 3 ([1]; 100 ug/ml 5-FOA): 79.5% and 71.4% | Percentages of GFP+ cells, Day 4 ([1]; 100 ug/ml 5-FOA): 85.2% and 74.4% | Percentages of GFP+ cells, Day 6 ([1]; 100 ug/ml 5-FOA): 92.1% and 86.2% | Percentages of GFP+ cells, Day 8 ([1]; 100 ug/ml 5-FOA): 92.8% and 82.8% | Number of GFP + cells per μl, Day 1 ([1]; 1000 ug/ml 5-FOA): 75925.72 cells per μl | Number of GFP + cells per μl, Day 2 ([1]; 1000 ug/ml 5-FOA): 79080.77 cells per μl | Number of GFP + cells per μl, Day 4 ([1]; 1000 ug/ml 5-FOA): 151010.55 cells per μl | Number of GFP + cells per μl, Day 6 ([1]; 1000 ug/ml 5-FOA): 217794.10 cells per μl | Number of GFP + cells per μl, Day 8 ([1]; 1000 ug/ml 5-FOA): 339282.35 cells per μl | Percentages of GFP+ cells, Day 1 ([1]; 1000 ug/ml 5-FOA): 51.9% and 49.4% | Percentages of GFP+ cells, Day 2 ([1]; 1000 ug/ml 5-FOA): 65.0% and 58.9% | Percentages of GFP+ cells, Day 3 ([1]; 1000 ug/ml 5-FOA): 72.9% and 66.9% | Percentages of GFP+ cells, Day 4 ([1]; 1000 ug/ml 5-FOA): 82.0% and 77.7% | Percentages of GFP+ cells, Day 6 ([1]; 1000 ug/ml 5-FOA): 92.6% and 90.5% | Percentages of GFP+ cells, Day 8 ([1]; 1000 ug/ml 5-FOA): 90.1% and 75.7% | proliferation of UMPS knockout cells in 5-FOA ([1]; 10 and 100 μg/ml 5-FOA): proliferated well | fraction of UMPS^KO/KO cells ([1]; all 5-FOA concentrations used): increased over time | cell growth of UMPS knockout cells in 5-FOA ([1]; highest concentration (1000 ug/ml)): slowed their cell growth down

O=c1ccn([C@@H]2O[C@H](CO)[C@@H](O)[C@H]2O)c(=O)[nH]1 [Uridine]
Alleles with frameshift InDels, Percent of alleles (without 5-FOA) ([2]; TIDE, day 8, metabolite 250 μg/ml): 52.5% | Alleles with InDels, Percent of alleles (without 5-FOA) ([2]; TIDE, metabolite 250 μg/ml): 77.0% | frameshift InDel frequency, Percent [2, 6]: 52.5% | overall InDel frequency, Percent (%) [2, 6]: 77.0% | Predicted viable cell counts, Cells with In-frame InDel ([2]; day 8, metabolite 250 μg/ml): 777000 | Predicted viable cell counts, Cells with frameshift InDel ([2]; day 8, metabolite 250 μg/ml): 1660000 | Predicted viable cell counts, Cells without InDel ([2]; day 8, metabolite 250 μg/ml): 729100 | Cell density, Day 1 [3]: 9.67E+05 cells per ml | Cell density, Day 2 [3]: 1.71E+06 cells per ml | Cell density, Day 4 [3]: 3.70E+06 cells per ml | Cell density, Day 6 [3]: 3.92E+06 cells per ml | Cell density, Day 8 [3]: 3.96E+06 cells per ml | Cell density, Day 1 [4]: 9.78E+05 cells per ml | Cell density, Day 2 [4]: 1.98E+06 cells per ml | Cell density, Day 4 [4]: 3.90E+06 cells per ml | Cell density, Day 6 [4]: 4.91E+06 cells per ml | Cell density, Day 8 [4]: 4.09E+06 cells per ml | Cell density, Day 1 [5, 7]: 7.69E+05 cells per ml | Cell density, Day 2 [5, 7]: 1.59E+06 cells per ml | Cell density, Day 4 [5, 7]: 3.43E+06 cells per ml | Cell density, Day 6 [5, 7]: 3.79E+06 cells per ml | Cell density, Day 8 [5, 7]: 3.17E+06 cells per ml | Number of viable cells per ml, Day 1 [5, 7]: 769000 cells per ml | Number of viable cells per ml, Day 2 [5, 7]: 1590000 cells per ml | Number of viable cells per ml, Day 4 [5, 7]: 3430000 cells per ml | Number of viable cells per ml, Day 6 [5, 7]: 3790000 cells per ml | Number of viable cells per ml, Day 8 [5, 7]: 3170000 cells per ml | growth of UMPS edited culture ([5]; exogenous uracil source 250 μg/ml): rescued the growth of an UMPS edited culture to the same level as mock edited cells | cell proliferation after UMPS knockout ([5]; supplemented at 250 μg/ml): not impaired
